ChEMBL document CHEMBL1201862, “PubChem BioAssay data set” (2004)
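Briefly, cells in 96-well plates were exposed to five compound concentrations for 48 h, and endpoints were estimated by linear interpolation. GI50: concentration for 50% inhibition of growth.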 The source made the active and inactive calls. No stated cut-off is given here; in the data, active = GI50 up to about 1.1 µM and inactive = higher.

What was measured:
Assay in all cases: growth of human tumour cells (NCI), 48 h
MDA-MB-435 = system: MDA-MB-435
A549 = system: A549
BT-549 = system: BT-549
UACC-62 = system: UACC-62
SF-268 = system: SF-268
CAKI-1 = system: CAKI-1
MOLT-4 = system: MOLT-4
Malme-3M = system: Malme-3M
UACC-257 = system: UACC-257
ACHN = system: ACHN
SW-620 = system: SW-620
UO-31 = system: UO-31
SF-295 = system: SF-295
NCI-H226 = system: NCI-H226
SF-539 = system: SF-539
LOX IMVI = system: LOX IMVI
EKVX = system: EKVX
OVCAR-5 = system: OVCAR-5
NCI-H522 = system: NCI-H522

Measured: GI50

CC(=O)C(=[N+]=[N-])C(=O)N1CCOC1=O
inactive: MDA-MB-435 > 10 µM | A549 > 10 µM | BT-549 > 10 µM | UACC-62 > 10 µM | SF-268 > 10 µM | CAKI-1 > 10 µM | MOLT-4 > 10 µM | Malme-3M > 10 µM | UACC-257 > 10 µM | ACHN > 10 µM | SW-620 > 10 µM | UO-31 > 10 µM | SF-295 > 10 µM | NCI-H226 > 10 µM | SF-539 > 10 µM | LOX IMVI > 10 µM | EKVX > 10 µM | OVCAR-5 > 10 µM

C=CCNC1=C2C[C@@H](C)C[C@@H](OC)[C@H](OC(=O)CCCCN)[C@H](C)/C=C(\C)[C@@H](OC(N)=O)[C@H](OC)/C=C\C=C(/C)C(=O)NC(=CC1=O)C2=O
inactive: MDA-MB-435 12.8 µM | A549 11.9 µM | BT-549 19 µM | NCI-H522 13.6 µM | UACC-62 14.6 µM | SF-268 16.9 µM | CAKI-1 18.5 µM | MOLT-4 9.14 µM | Malme-3M 6.71 µM | UACC-257 6.17 µM | ACHN 19.5 µM | SW-620 6.18 µM | UO-31 19.5 µM | SF-295 15.7 µM | LOX IMVI 12.6 µM | EKVX 13.7 µM | OVCAR-5 19 µM

NC1CNC(=O)c2cscc21 (stereo not drawn)
inactive: MDA-MB-435 > 100 µM | A549 > 100 µM | BT-549 > 100 µM | NCI-H522 > 100 µM | UACC-62 > 100 µM | SF-268 > 100 µM | CAKI-1 > 100 µM | MOLT-4 > 100 µM | Malme-3M > 100 µM | UACC-257 > 100 µM | ACHN > 100 µM | SW-620 > 100 µM | UO-31 > 100 µM | SF-295 > 100 µM | LOX IMVI > 100 µM | EKVX > 100 µM | OVCAR-5 > 100 µM

O=[N+]([O-])c1ccc2nc(-c3ccccn3)c(-c3ccccn3)nc2c1
inactive: MDA-MB-435 > 100 µM | A549 57.4 µM | BT-549 > 100 µM | NCI-H522 44.9 µM | UACC-62 44.5 µM | SF-268 > 100 µM | CAKI-1 > 100 µM | MOLT-4 > 100 µM | Malme-3M 61.2 µM | UACC-257 98.4 µM | ACHN 80 µM | SW-620 41.9 µM | UO-31 > 100 µM | SF-295 96.8 µM | NCI-H226 > 100 µM | SF-539 45.9 µM | EKVX 71 µM | OVCAR-5 > 100 µM

CCCCc1ccc(-n2sc3ncc(-c4ccccc4)cc3c2=O)cc1
inactive: MDA-MB-435 > 100 µM | A549 > 100 µM | BT-549 59.6 µM | UACC-62 > 100 µM | CAKI-1 64.3 µM | MOLT-4 > 100 µM | UACC-257 > 10 µM | ACHN > 100 µM | SW-620 > 100 µM | UO-31 > 100 µM | SF-295 > 100 µM | NCI-H226 > 100 µM | LOX IMVI > 100 µM | EKVX > 100 µM | OVCAR-5 > 100 µM

Cc1ccc2c(c1C)CC1(Cc3c(C)ccc(C)c3C1=O)C2=O (stereo not drawn)
inactive: MDA-MB-435 > 100 µM | A549 > 100 µM | BT-549 > 100 µM | NCI-H522 > 100 µM | UACC-62 > 100 µM | SF-268 > 100 µM | CAKI-1 > 100 µM | MOLT-4 > 100 µM | Malme-3M > 100 µM | UACC-257 > 100 µM | ACHN > 100 µM | SW-620 > 100 µM | UO-31 > 100 µM | SF-295 > 100 µM | NCI-H226 > 100 µM | SF-539 > 100 µM | EKVX > 100 µM | OVCAR-5 > 100 µM

CCN(CC)CCCC(C)Nc1ccnc(/C=C/c2ccc(Cl)cc2)c1 (stereo not drawn)
inactive: MDA-MB-435 1.56 µM | A549 1.91 µM | BT-549 2.19 µM | NCI-H522 1.63 µM | UACC-62 1.94 µM | SF-268 3.06 µM | CAKI-1 2.29 µM | MOLT-4 1.22 µM | Malme-3M 1.21 µM | UACC-257 2.02 µM | ACHN 3.32 µM | SW-620 1.54 µM | UO-31 1.52 µM | SF-295 3.02 µM | SF-539 1.67 µM | LOX IMVI 1.26 µM | EKVX 4.2 µM | OVCAR-5 2.61 µM

COc1cc(/C=C2/C(=O)N/C(=N\C(C)=O)N2C)ccc1OC(C)=O
inactive: MDA-MB-435 > 100 µM | A549 > 100 µM | BT-549 > 100 µM | UACC-62 > 100 µM | CAKI-1 > 100 µM | MOLT-4 > 100 µM | UACC-257 > 100 µM | ACHN > 100 µM | SW-620 > 100 µM | UO-31 > 100 µM | SF-295 > 100 µM | NCI-H226 > 100 µM | SF-539 > 100 µM | LOX IMVI > 100 µM | EKVX > 100 µM | OVCAR-5 > 100 µM

[N-]=[N+]=Nc1c(-c2ccccc2)c(=O)n(-c2ccccc2)c2ccccc12
inactive: MDA-MB-435 60.8 µM | A549 > 100 µM | BT-549 > 100 µM | NCI-H522 27.7 µM | UACC-62 56 µM | SF-268 13.2 µM | MOLT-4 75.7 µM | Malme-3M 19.3 µM | UACC-257 65.8 µM | ACHN 49.4 µM | SW-620 > 100 µM | UO-31 37.3 µM | SF-295 49 µM | NCI-H226 91.4 µM | SF-539 > 100 µM | LOX IMVI 63.2 µM | EKVX 17.6 µM

CC1(C)OC2[C@@H](CO[C@@]3([C@H]4OC(C)(C)O[C@@H]4CO)OC(C)(C)O[C@@H]23)O1 (stereo partly drawn)
inactive: MDA-MB-435 > 100 µM | A549 > 100 µM | BT-549 > 100 µM | NCI-H522 > 100 µM | UACC-62 > 100 µM | SF-268 > 100 µM | MOLT-4 > 100 µM | Malme-3M > 100 µM | ACHN > 100 µM | SW-620 > 100 µM | UO-31 > 100 µM | SF-295 > 100 µM | NCI-H226 > 100 µM | LOX IMVI > 100 µM | EKVX > 100 µM | OVCAR-5 > 100 µM

Cc1ccc(S(=O)(=O)NCCN(CCNS(=O)(=O)c2ccc(C)cc2)S(=O)(=O)c2ccc(C)cc2)cc1
inactive: MDA-MB-435 30.8 µM | A549 25.7 µM | BT-549 > 100 µM | NCI-H522 > 100 µM | UACC-62 79.1 µM | SF-268 47.4 µM | CAKI-1 > 100 µM | MOLT-4 > 100 µM | Malme-3M 15.4 µM | UACC-257 29.1 µM | ACHN 60 µM | SW-620 > 100 µM | UO-31 > 100 µM | SF-295 > 100 µM | SF-539 42.5 µM | LOX IMVI 40.1 µM | EKVX 85.1 µM | OVCAR-5 > 100 µM
